Test system: monocotyledonous and dicotyledonous test plants
Test: Post-emergence herbicidal action
Type: in vivo
Parameters: key: 10=total damage; 0=no action; Ratings of from 10 to 7 (especially from 10 to 8) indicate good to very good herbicidal action
Conditions: about 18 days, rating 0-10
Procedure: Post-Emergence Herbicidal Action
In a greenhouse, monocotyledonous and dicotyledonous test plants are grown in standard soil in plastic pots and at the 4- to 6-leaf stage are sprayed with an aqueous suspension of the test compounds of formula I prepared from a 25% wettable powder (Example F3, b) according to WO 97/34485) or with an emulsion of the test compounds of formula I prepared from a 25% emulsifiable concentrate (Example F1, c) according to WO 97/34485), in a concentration corresponding to 125 g or 250 g of active ingredient/ha (500 litres of water/ha). The test plants are then grown on in a greenhouse under optimum conditions. After a test duration of about 18 days, the test is evaluated in accordance with a scale of nine ratings (10=total damage, 0=no action). Ratings of from 10 to 7 (especially from 10 to 8) indicate good to very good herbicidal action.

| SMILES | Post-emergence action, Amaranthus (250 g a.i./ha) | Post-emergence action, Chenopodium (250 g a.i./ha) | Post-emergence action, Echinochloa (250 g a.i./ha) | Post-emergence action, Euphorbia (250 g a.i./ha) | Post-emergence action, Ipomea (250 g a.i./ha) | Post-emergence action, Sinapis (250 g a.i./ha) | Post-emergence action, Stellaria (250 g a.i./ha) | Post-emergence action, Xanthium (250 g a.i./ha) | Post-emergence action, Amaranthus (125 g a.i./ha) | Post-emergence action, Chenopodium (125 g a.i./ha) | Post-emergence action, Echinochloa (125 g a.i./ha) | Post-emergence action, Euphorbia (125 g a.i./ha) | Post-emergence action, Ipomea (125 g a.i./ha) | Post-emergence action, Sinapis (125 g a.i./ha) | Post-emergence action, Stellaria (125 g a.i./ha) | Post-emergence action, Xanthium (125 g a.i./ha) |
| --- | --- | --- | --- | --- | --- | --- | --- | --- | --- | --- | --- | --- | --- | --- | --- | --- |
| CCN1C(=O)N(Cc2nc(C(F)(F)F)ccc2C(=O)C2=C(O)CCCC2=O)C(=O)C1C (racemic) [Compound A1.181] | 9 | 8 | 4 | 8 | 8 | 5 | 7 | 8 | – | – | – | – | – | – | – | – |
| Cn1c(C(F)(F)F)nn(Cc2nc(C(F)(F)Cl)ccc2C(=O)C2=C(O)CCCC2=O)c1=O [Compound A1.001, 2-[6-(Chloro-difluoro-methyl)-3-(2-hydroxy-6-oxo-cyclohex-1-ene-carbonyl)-pyridin-2-ylmethyl]-4-methyl-5-trifluoromethyl-2.4-dihydro-[1.2.4]triazol-3-one] | – | – | – | – | – | – | – | – | 8 | 9 | 4 | 4 | 8 | 8 | 8 | 8 |
| Cn1c(C(F)(F)F)nn(Cc2nc(C(F)(F)F)ccc2C(=O)C2=C(O)CCCC2=O)c1=O [Compound A1.007] | 9 | 10 | 8 | 4 | 9 | 8 | 7 | 9 | – | – | – | – | – | – | – | – |
| COc1nn(Cc2nc(C(F)(F)F)ccc2C(=O)C2=C(O)CCCC2=O)c(=O)n1C [Compound A1.019] | 9 | 9 | 8 | 9 | 9 | 8 | 8 | 9 | – | – | – | – | – | – | – | – |
| COc1nn(Cc2nc(C(F)(F)F)ccc2C(=O)C2=C(O)CCCC2=O)c(=O)n1C1CC1 [Compound A1.031] | 9 | 10 | 7 | 8 | 9 | 8 | 9 | 9 | – | – | – | – | – | – | – | – |
| CCOc1nn(Cc2nc(C(F)(F)F)ccc2C(=O)C2=C(O)CCCC2=O)c(=O)n1C [Compound A1.037] | 9 | 9 | 4 | 8 | 9 | 8 | 8 | 9 | – | – | – | – | – | – | – | – |
| CCOc1nn(Cc2nc(C(F)(F)F)ccc2C(=O)C2=C(O)CCCC2=O)c(=O)n1C [Compound A1.043] | 9 | 9 | 7 | 7 | 9 | 6 | 9 | 9 | – | – | – | – | – | – | – | – |
| CCOc1nn(Cc2nc(C(F)(F)F)ccc2C(=O)C2=C(O)CCCC2=O)c(=O)n1C1CC1 [Compound A1.049] | 9 | 8 | 8 | 9 | 9 | 8 | 8 | 9 | – | – | – | – | – | – | – | – |
| O=C1CCCC(O)=C1C(=O)c1ccc(C(F)(F)F)nc1Cn1sccc1=O [Compound A1.109] | 9 | 10 | 8 | 10 | 9 | 3 | 5 | 9 | – | – | – | – | – | – | – | – |
| O=C1CCCC(O)=C1C(=O)c1ccc(C(F)(F)F)nc1Cn1sc(Cl)cc1=O [Compound A1.115] | 9 | 9 | 7 | 8 | 7 | 3 | 9 | 9 | – | – | – | – | – | – | – | – |
| CN1CCN(Cc2nc(C(F)(F)F)ccc2C(=O)C2=C(O)CCCC2=O)C1=S [Compound A1.202] | 9 | 8 | 8 | 9 | 9 | 8 | 7 | 9 | – | – | – | – | – | – | – | – |
| Cc1nn(CCOCc2nc(C(F)(F)F)ccc2C(=O)C2=C(O)C3CCC(C3)C2=O)c(=O)s1 (stereo not shown) [Compound A6.082] | 8 | 9 | 7 | 7 | 8 | 5 | 9 | 7 | – | – | – | – | – | – | – | – |
| COc1nn(Cc2nc(C(F)(F)F)ccc2C(=O)C2=C(O)C3CCC(C3)C2=O)c(=O)s1 (stereo not shown) [Compound A6.091] | 8 | 9 | 9 | 8 | 8 | 8 | 9 | 9 | – | – | – | – | – | – | – | – |
| Cc1nn(Cc2nc(C(F)(F)F)ccc2C(=O)C2=C(O)C3CCC(C3)C2=O)c(=O)o1 (stereo not shown) [Compound A6.097] | 7 | 9 | 7 | 7 | 7 | 8 | 9 | 7 | – | – | – | – | – | – | – | – |
| Cc1nn(Cc2nc(C(F)(F)F)ccc2C(=O)C2=C(O)C(C)(C)CC(C)(C)C2=O)c(=O)o1 [Compound A7.008] | 5 | 9 | 7 | 7 | 7 | 9 | 9 | 8 | – | – | – | – | – | – | – | – |
| Cc1nn(Cc2nc(C(F)(F)F)ccc2C(=O)C2=C(O)C(C)(C)CC(C)(C)C2=O)c(=O)s1 [Compound A7.009] | 4 | 9 | 7 | 7 | 7 | 8 | 7 | 7 | – | – | – | – | – | – | – | – |
| CSC(=O)n1c(C)cc(=O)n1Cc1nc(C(F)(F)F)ccc1C(=O)C1=C(O)C(C)(C)C(=O)C(C)(C)C1=O [Compound A8.062] | 9 | 10 | 9 | 9 | 8 | 9 | 5 | 0 | – | – | – | – | – | – | – | – |
| COc1nn(Cc2nc(C(F)(F)F)ccc2C(=O)C2=C(O)C(C)(C)C(=O)C(C)(C)C2=O)c(=O)s1 [Compound A8.095] | 9 | 5 | 9 | 0 | 9 | 8 | 7 | 8 | – | – | – | – | – | – | – | – |
| CCN1C(=O)N(Cc2nc(C(F)(F)F)ccc2C(=O)C2=C(O)C(C)(C)C(=O)C(C)(C)C2=O)C(=O)C1C (stereo not shown) [Compound A8.174] | 8 | 9 | 0 | 7 | 8 | 7 | 7 | 7 | – | – | – | – | – | – | – | – |
| COc1nn(Cc2nc(C(F)(F)F)ccc2C(=O)c2cnn(C)c2O)c(=O)n1C [Compound B1.004] | 8 | 9 | 8 | 9 | 8 | 10 | 8 | 9 | – | – | – | – | – | – | – | – |

Source: patent US20050256003A1, “Novel herbicides” (priority 2002, published 2005)
